According to patent US9662388B2, “Methods and systems for treating cell proliferation disorders using plasmonics enhanced photospectral therapy (PEPST) and exciton-plasmon enhanced phototherapy (EPEP)” (Duke University, priority 2008, dated 2017):
Like-named read-outs stand apart in the source and are kept apart here. Non-standard residues stand in square brackets, D forms with d. Residues, ends and D or L forms follow the SMILES beside them. Bpa = N[CH](Cc1ccc(C(=O)c2ccccc2)cc1)C(=O)O; 2Nal = N[CH](Cc1ccc2ccccc2c1)C(=O)O; Aib = CC(C)(N)C(=O)O

Key:
[1] = cited from earlier work
[2] = average over λex 224, 266, 280 nm

| Compound | kSSET ([1]; λex 224 nm) | kSSET ([1]; λex 266 nm) | kSSET ([1]; λex 280 nm) | kSSET (Average) [2] |
| --- | --- | --- | --- | --- |
| CC(NC(=O)C(C)(C)NC(=O)C(Cc1ccc(C(=O)c2ccccc2)cc1)NC(=O)C(C)(C)NC(=O)C(Cc1ccc2ccccc2c1)NC(=O)C(C)(C)NC(=O)C(C)NC(=O)C(C)(C)N)C(=O)O (single isomer, unassigned) [Compound 2B] | 3.1e+07 s⁻¹ | 3.9e+07 s⁻¹ | 4.7e+07 s⁻¹ | 3.9e+07 s⁻¹ |
| CC1NC(=O)C(C)(C)NC(=O)C(Cc2ccc(C(=O)c3ccccc3)cc2)NC(=O)C(C)(C)NC(=O)C(C)NC(=O)C(C)(C)NC(=O)C(Cc2ccc3ccccc3c2)NC(=O)C(C)(C)NC1=O (centres unmarked) [Compound 1A] (cyclo([Aib][2Nal][Aib]A[Aib][Bpa][Aib]A); configuration not given here) | 3.8e+07 s⁻¹ | 3.6e+07 s⁻¹ | 3.6e+07 s⁻¹ | 3.67e+07 s⁻¹ |
| CC(NC(=O)C(C)(C)NC(=O)C(Cc1ccc(C(=O)c2ccccc2)cc1)NC(=O)C(C)(C)NC(=O)C(C)NC(=O)C(C)(C)NC(=O)C(Cc1ccc2ccccc2c1)NC(=O)C(C)(C)N)C(=O)O (centres unmarked) [Compound 1B] (H-[Aib][2Nal][Aib]A[Aib][Bpa][Aib]A-OH; configuration not given here) | 2.44e+08 s⁻¹ | 1.8e+08 s⁻¹ | 1.36e+08 s⁻¹ |  |
